The text below walks through data of US9408915B2, “Tolvaptan solid dispersion and its preparation method” (Jiangsu Hengrui Medicine Co., Ltd., priority 2010, dated 2016).

SMILES strings stand for the structures.

For data set [1] the following is noted: white crystal or crystalline powder; cited from earlier work.
Data set [2] in a line: Dissolution test (paddle blade method, 0.2% w/v sodium dodecylsulfate aqueous solution). In kind it is physicochemical. Conditions: powder equal to 100 mg tolvaptan, paddle 100 rpm. As for the experimental part: Q.S. (the amount is equal to 100 mg of tolvaptan) of the powder prepared in Examples 1-10, Comparative examples and the control (crystal material with a particle diameter distribution of 1400 μm and an average diameter of 83 μm) were added to the dissolution tester. 0.2% w/v sodium dodecylsulfate aqueous solution was used as the solvent. The dissolution test was performed using the paddle blade method with the rotation speed of 100 rpm. A sample was taken at 5 min, 10 min, 15 min, 20 min, 30 min, and 45 min to determine the absorbance and calculate the dissolution rate.
The determination of the dissolution rate (%) is as follows: dissolve a certain amount of tolvaptan in methanol; transfer 5 ml of the solution to a 100-ml volumetric flask and then dilute with 0.2% (w/v) sodium dodecylsulfate aqueous solution to give a 20 μg/ml standard solution; the absorbance of the standard solution and the sample solution was determined at wavelengths of 269 nm and 330 nm. The dissolution rate can be obtained by the ratio of the difference of the absorbance of standard solution and the control and the difference of the absorbance of the sample solution and control.

With `Cc1ccccc1C(=O)Nc1ccc(C(=O)N2CCC[C@@H](O)c3cc(Cl)ccc32)c(C)c1` [Tolvaptan, 7-chloro-5-hydroxy-1-[2-methyl-4-(2-methylbenzoylamino)benzoyl]-2,3,4,5,-tetrohydro-1H-benzoazepine], in data set [1], the solubility in water result was “only slightly soluble in water”.
As to `Cc1ccccc1C(=O)Nc1ccc(C(=O)N2CCC[C@@H](O)c3cc(Cl)ccc32)c(C)c1` [compound 1], the dissolution rate is 15.9% in data set [2] (5 min); 19.1% in data set [2] (10 min); 22.2% in data set [2] (15 min); 25.8% in data set [2] (20 min); 30.7% in data set [2] (30 min); 42.8% in data set [2] (45 min).
